In brackets after ≈: the same amount, converted by molar mass.
Experiments:
[1] = Water solubility of the isothiazolones; conditions: for solubility: water
[2] = Rate of release and concentration of active ingredient from sealed cellulose film bags into deionized water, followed by ultraviolet spectroscopy; format: physicochemical; conditions: 1.28 g of 7% composition on Celite 545 in sealed 3-mil cellulose bag, 800 ml deionized water, complete release = 112 ppm
Description: There was sealed in bags of 3-mil cellulose film (3.5 in.^2 surface area) 1.28 g. of each of the three compositions prepared in Example 1 containing compounds A, B, and C, respectively. For comparison, 1.28 g. of a 7% active ingredient solid composition of Kathon®886 (a 3:1 weight ratio blend of 5-chloro-2-methyl-3-isothiazolone and 2-methyl-3-isothiazolone with 15 weight % of Mg(NO3)2 and 9 weight % of MgCl2 in aqueous solution containing 14% active ingredient available from the Rohm and Haas Company) absorbed on Celite®545 was sealed in a bag of 3-mil cellulose film (3.5 in.^2 surface area). The rate of release and concentration of active ingredient from the sealed bags into 800 ml. of deionized water was followed by ultraviolet spectroscopy. Complete release of active ingredient from each sample would give 112 ppm.

[3] = Release of active ingredient from solid Celite 545 composition stirred in deionized water, followed by ultraviolet spectroscopy; format: physicochemical; conditions: for Concentration in Solution at Elapsed Time: 1.28 g of 7% composition on Celite 545 in 800 ml deionized water, total release = 112 ppm; for time required to reach a saturated solution: solid composition on Celite 545 in deionized water
Description: To 13.28 g. of Celite®545 in each of three glass bottles was added 1 g. of the following isothiazolones in 20 ml. of methanol:
Each mixture was then stirred by hand with a spatula until it appeared to be uniformly mixed and free-flowing. Air drying, to remove methanol, affords solid product, 14.28 g., containing 7 weight % of active ingredient.
1.28 g. of each of the resulting solid microbiocidal compositions was stirred in 800 ml. of deionized water. The release of active ingredient was followed by analysis of the supernatant water by ultraviolet spectroscopy. Total release of active ingredient would give 112 ppm.

[4] = physchem; conditions: water

SMILES	Water Solubility ([1]; Example 3 table head) [ppm]	solubility [1] [µg/mL]	Concentration/Rate of Release ([2]; 1 day) [ppm]	Concentration/Rate of Release ([2]; 5 days) [ppm]	Concentration in Solution at Elapsed Time ([3]; 0.75 hr.) [ppm]	Concentration in Solution at Elapsed Time ([3]; 3.0 hr.) [ppm]	Concentration in Solution at Elapsed Time ([3]; 23.0 hr.) [ppm]	Concentration in Solution at Elapsed Time ([3]; 66.0 hr.) [ppm]	solubility ([1]; Water Solubility, Example 1 table) [µg/mL]	solubility ([1]; Water Solubility, Example 3 table head) [µg/mL]	time required to reach a saturated solution [3]	solubility [4] [µg/mL]
CCCCCCCCn1sc(Cl)c(Cl)c1=O [Compound C, 4,5-dichloro-2-octyl-3-isothiazolone]	14	14 (≈ 49.6 µM)	0.4	1.7	7	10	14	14				
O=c1c(Cl)c(Cl)sn1C1CCCCC1 [B, 4,5-dichloro-2-cyclohexyl-3-isothiazolone]			5	11	27	39		39	40 (≈ 159 µM)	42 (≈ 167 µM)	1 to 3 h	
CCCCCCCCn1sccc1=O [A, 2-octyl-3-isothiazolone]			27	82							less than 1 hours	500 (≈ 2340 µM)

Reference: patent US4505889A, “Protracted release microbiocidal article for aqueous systems” (Rohm and Haas Company, priority 1982, dated 1985)
